What follows are molecules tested on BT-549 (assay: Growth inhibition of human BT549 cells assessed as cell growth at 10^-5 M incubated for 48 hrs by sulforhodamine B assay relative to control). Conditions: BT-549, 48 h, read-out: Activity.
Type: functional
`c1ccc2c3c([nH]c2c1)C(c1ccc(C2NCCc4c2[nH]c2ccccc42)cc1)NCC3` (racemic) gave a growth at 10 µM of 57 to 86.9%.

What follows are molecules tested on HCC 2998 (assay: Growth inhibition of human HCC2998 cells assessed as cell growth at 10^-5 M incubated for 48 hrs by sulforhodamine B assay relative to control). Conditions: HCC 2998, 48 h, read-out: Activity.
Type: functional
`c1ccc2[nH]c(-c3ccc(-c4nccc5c4[nH]c4ccccc45)cc3)nc2c1` showed a growth at 10 µM of 19 to 74%.

What follows are molecules tested on DU-145 (assay: Growth inhibition of human DU145 cells assessed as cell growth at 10^-5 M incubated for 48 hrs by sulforhodamine B assay relative to control). Conditions: DU-145, 48 h, read-out: Activity.
Type: functional
For `c1ccc2[nH]c(-c3ccc(-c4nccc5c4[nH]c4ccccc45)cc3)nc2c1`, the growth at 10 µM was 19 to 67.4%.

What follows are molecules tested on NCI/ADR-RES (assay: Growth inhibition of human NCI-ADR-RES cells assessed as cell growth at 10^-5 M incubated for 48 hrs by sulforhodamine B assay relative to control). Conditions: read-out: Activity.
Type: functional
`c1ccc2[nH]c(-c3ccc(-c4nccc5c4[nH]c4ccccc45)cc3)nc2c1` showed a growth at 10 µM of 10 to 62.6%.

The molecules below were run on NCI-H23 (assay: Growth inhibition of human NCI-H23 cells assessed as cell growth at 10^-5 M incubated for 48 hrs by sulforhodamine B assay relative to control). Conditions: NCI-H23, 48 h, read-out: Activity.
Type: functional
Work on `c1ccc2[nH]c(-c3ccc(-c4nccc5c4[nH]c4ccccc45)cc3)nc2c1` yielded a growth at 10 µM of 18 to 69.1%.

— ChEMBL document CHEMBL4004838, “Design and synthesis of novel phenyl -1, 4-beta-carboline-hybrid molecules as potential anticancer agents” (Eur J Med Chem, 2017)
